The structures appear in SMILES notation.

The values below come from patent US20200123127A1, “REMOVAL OF SENESCENCE-ASSOCIATED MACROPHAGES” (EVERON BIOSCIENCES, INC., priority 2016, published 2020).

Assay [1] has as its system p16(Ink4a) expression in SAMs. As to the kind of experiment: p16(Ink4a) promoter-dependent luciferase activity in alginate bead-elicited macrophages (SAMs) ex vivo. In kind it is cell-based, mouse. Particulars: for Modulation of p16(Ink4a): SAMs: SAMs from NDF alginate beads, dose-response testing; for IL-4-dependent increase in luciferase activity / p16(Ink4a) expression: IL-4 10 ng/mL, 72 hour. How it is done:
FIG. 7. Immunomodulatory regulation of p16(Ink4a) and SAβG in macrophages. Peritoneal lavage cells elicited by alginate-encapsulated SCs from p16^Ink4a/Luc mice were treated ex vivo with immunomodulatory agents for 72 hours. A) p16 promoter-dependent luciferase activity (black bars) and […] activity (via 4-MUG hydrolysis) (gray bars) were measured following treatment with M1- and M2-polarizing stimuli: LPS at 1 ng/mL, IFN-γ at 10 ng/mL, LPS/IFN-γ co-treatment, Poly(I:C) at 10 μg/mL, IFN-α at 100 U/mL, IL-4 at 20 ng/mL, IL-13 at 10 ng/ml, and IL-4/IL-13 co-treatment. Results are shown as the mean±standard deviation for at least 3 independent experiments, with statistical significance between treated compared to non-treated samples depicted. B) Dose-dependent response of JAK1/2 inhibitor Ruxolitinib on luciferase activity in elicited macrophages in the presence (gray bars) or absence (black bars) of IL-4 (10 ng/mL) stimulation. Enzyme activities are expressed as the percent activity relative to non-treated (NT) controls per cell. Statistical significance between IL-4 stimulated and non-stimulated cells at each concentration of ruxolitinib is shown.
(§1) FIG. 8. Immunomodulatory regulation of p16(Ink4a) and SAβG in macrophages. Peritoneal lavage cells elicited by alginate-encapsulated SCs from p16^Ink4a/Luc mice were treated ex vivo with immunomodulatory agents for up to 72 hours. (A) mRNA expression of p16(Ink4a) and β-galactosidase (Glb1) in macrophages (relative to B2m expression) with or without LPS stimulation for 72 hours analyzed via qRT-PCR, normalized to non-treated controls. (B) Microphotograph of SAβG-stained adherence-selected macrophages with or without stimulation with LPS (1 ng/mL) for 72 hours (10× objective). (C&D) Kinetics of p16(Ink4a) promoter-dependent luciferase activity per cell with or without LPS stimulation (C) or IL-4 stimulation (D), normalized to activity from non-treated cells at time zero. Results are shown as the mean±standard deviation for at least 3 experiments. Statistical significance with respect to non-treated control at time zero is indicated. (E) Luciferase activity and (3-galactosidase activity (via 4-MUG hydrolysis) from proteose peptone-elicited lavage cells following stimulation with IL-4 (20 ng/mL) for 72 hours, normalized to non-treated controls. (F) Viability following 72 hour dose-response to JAK1/2 inhibitor Ruxolitinib in the presence or absence of IL-4 (10 ng/mL) stimulation, measured by CyQuant Direct DNA-based viability assay. Viability normalized to respective controls lacking Ruxolitinib. (G&H) Dose-response of STAT6 inhibitor AS1517499 against luciferase activity (G) and viability via CyQuant Direct assay (H) following 72 hour treatment in the presence and absence of IL-4 (10 ng/mL). Results normalized to respective controls (with or without IL-4) lacking STAT6 inhibitor. Statistical significance is calculated with respect to the difference between IL-4 stimulated and non-stimulated cells at each concentration of STAT6 inhibitor. (I) Relative luciferase activity per cell following repolarization with M1- and M2-inducing agents. Macrophages were left non-treated (NT) or treated with either LPS (1 ng/ml) or IL-4 (20 ng/ml) for 72 hours (days 1-3), as indicated. For each treatment set, samples were collected at 72 hours (no further treatment; days 4-6=x). Alternatively, cells were washed and placed in fresh medium (−), medium containing LPS (1 ng/mL) and IFN-γ (10 ng/mL), or medium containing IL-4 (20 ng/mL) and IL-13 (10 ng/mL) and incubated for an additional 72 hours prior to sample collection (as indicated for days 4-6). Luciferase activity is expressed as the percent activity per cell relative to non-treated (NT) controls after the first 72 hours.
Luciferase activity of cell lysates was accessed using Bright-Glo™ Luciferase Assay System (Promega; Madison, Wis.) according to manufacturer's instructions with minor modifications. […]

The test system of assay [2] is chronologically aging mice. Put plainly: Survival and frailty index of chronologically aging mice. Type of assay: in vivo, mouse. Here is the method:
FIG. 11. OT-82 effects on survival and frailty index of old mice. (A) Male and female mice were treated with OT-82 or with vehicle alone as a negative control. Survival was measured over the course of six treatments.
FIG. 12. Effects of asenins TA-3899 and TA-4812 on survival and frailty index of old mice. Results are provided on a background of FI of mice of the similar age, aged normally without any treatments (black color). Difference between FI of males receiving 3899 and intact mice is statistically significant (p=0.02).
Frailty Index (FI) was determined for individual mice as described previously (Antoch et al. Aging. 2017; 9: 1-12) using a 26 week-old group as a “young mouse” reference. For each mouse, various parameters were measured. These parameters include non-invasive measurements, including age, body weight, grip strength, diastolic blood pressure, and tail blood flow. Additional blood chemistry measurements were also determined, including white blood cell count, neutrophil count, neutrophil percentage, lymphocyte percentage, monocyte percentage, eosinophil percentage, red blood cell count, hemoglobin, hematocrit, mean corpuscular volume, mean corpuscular hemoglobin, mean corpuscular hemoglobin concentration, platelet count, and mean platelet volume. For each parameter mean value and standard deviation were calculated. Animals differing by more than one standard deviation (STDEV) from mean value in any single parameter were excluded from the reference group. Values for each measured parameter were compared with corresponding values for the reference group and assigned a score. The number of deficits an individual mouse expressed was calculated as a ratio of total number of parameters measured and this value is referred to as the frailty index.
Asenins TA-3899 and TA-4812 were evaluated for their effects on survival and frailty index in a model of chronologic aging mice. Treatment lasted for 20 weeks (weeks 77-97 of age). […] Frailty index of males was measured at week 109.

The subject of assay [3] is p16(Ink4a) in mLF and mVAT fibroblasts. As to the kind of experiment: Modulation of p16(Ink4a) in mouse lung and visceral adipose tissue-derived fibroblasts. In kind it is cell-based. The settings on record: for Modulation of p16(Ink4a): mLF and mVAT Senescent: 20Gy irradiation for senescence induction; for Modulation of p16(Ink4a): mLF and mVAT Proliferating: without irradiation. The source says:
We next sought to determine whether immunomodulatory agents, and other small molecules, were capable of selectively modulating p16(Ink4a) expression in SAMs by comparing their effects on p16 expression in SAMs to that of mouse lung fibroblasts (mLF) and mouse visceral adipose tissue-derived fibroblasts (mVAT). […] Immunomodulatory agents cause little to no change in p16 expression in fibroblasts. For example, mouse fibroblasts are reported to respond to LPS and IL-4 (expressing TLR4 and IL-4R, respectively), yet these agents are unable to modulate p16 in fibroblasts.

The next assay deals with SAMs. As to the kind of experiment: SAM viability (CyQuant Direct / resazurin). In kind it is cell-based, mouse. The settings on record: 72 hour; presence or absence of IL-4 10 ng/mL. Here is the method:
as §1
FIG. 10. Elevated p16(Ink4a) and β-galactosidase is regulated by immunomodulatory agents in macrophages, but not in mesenchymal SCs. Primary cultures of adipose-derived mesenchymal stromal cells (AdMSC) isolated from p16^Ink4a/Luc mice were irradiated (20 Gy) and cultured for 10 days for senescence induction. Mock irradiated cells were used as a proliferating cell control. Response of senescent and proliferating AdMSCs to immunomodulatory agents were compared to that of peritoneal lavage cells elicited by our alginate bead model. A-D) Dose-response curves of LPS (top panels: […]) and Poly(I:C) (bottom panels: C&D) on p16(Ink4a) promoter-dependent luciferase activity (left panels: A&C) and beta-galactosidase activity measured via 4-MUG hydrolysis (right panels: B&D) after 72 hr treatment. […]
FIG. 13. […] SAM viability was determined using the resazurin cell viability assay (Res). […]

On to `CCOC(=O)c1sc(SCc2ccccc2)c2c1CN(c1ccc(OC)cc1)C/C2=N\O` [Example A1.11, Ethyl 1-(benzylthio)-7-(hydroxyimino)-5-(4-methoxyphenyl)-4,5,6,7-tetrahydro-thieno[3,4-c]pyridine-3-carboxylate], for which the “Modulation of p16(Ink4a): SAMs” value in assay [1] was “decrease”. The “survival rates vs control groups” value in assay [2] (OT-82: after 6 courses, 111 weeks of age, asenins: treated weeks 77-97, at 112 weeks of age) is given as “no statistical significance”. In assay [2] (treatment weeks 77-97 of age, measured at week 109), the “FI of males compared to intact animals” value is reported as “statistically significant decrease”. Also, in assay [3], the “Modulation of p16(Ink4a): mLF and mVAT Senescent” value is “no change”; the “Modulation of p16(Ink4a): mLF and mVAT Proliferating” value is “no change”.

With `NC(=O)c1cnc(NCCc2ccc(O)c(Cl)c2)nc1NCc1ccccc1` [AS1517499, reference compound], the “viability of macrophages (CyQuant Direct)” value with SAMs is on record as “without affecting viability”. For the same compound, in assay [1], the “IL-4-dependent increase in luciferase activity / p16(Ink4a) expression” value was “abrogated”. In assay [3], the “Modulation of p16(Ink4a): mLF and mVAT Senescent” value is reported as “no change”; the “Modulation of p16(Ink4a): mLF and mVAT Proliferating” value is recorded as “no change”.

For `CN(C)C(=N)N=C(N)N` [Metformin], in assay [1], the “Modulation of p16(Ink4a): SAMs” value is “decrease”.

As for `N#CCNC(=O)c1ccc(-c2ccnc(Nc3ccc(N4CCOCC4)cc3)n2)cc1` [CYT387, momelotinib, reference compound], in assay [1], the “IL-4-dependent increase in luciferase activity / p16(Ink4a) expression” value is on record as “abrogates”. In addition, in assay [3], the “Modulation of p16(Ink4a): mLF and mVAT Senescent” value is listed as “no change”; the “Modulation of p16(Ink4a): mLF and mVAT Proliferating” value is recorded as “no change”.
